According to PMC9246773, “Assessing the Activity of Antimicrobial Peptides Against Common Marine Bacteria Located in Rotifer (Brachionus plicatilis) Cultures” (Probiotics and Antimicrobial Proteins, 2022):
Non-standard residues stand in square brackets, D forms with d. Residues, ends and D or L forms follow the SMILES beside them.

What was measured:
Vibrio alginolyticus [1] = assay type: cell-based; settings: 48 h
Method in brief: (§1)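 MIC, twofold broth microdilution in polypropylene plates; peptides 0.125–65 µg mL^−1; ~5 × 10^5 CFU mL^−1; MHB at 0‰ or 25‰ salinity. Acetic acid/BSA diluent where peptides precipitated. Duplicates. T. discolor: 1 MHB:7 seawater (25‰) only.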

[2] = test system: Vibrio harveyi (ATCC 35084); assay type: cell-based; settings: ATCC 35084, 48 h
Method in brief: as §1

Tenacibaculum discolor = assay type: cell-based; settings: 48 h
Method in brief: as §1

Vibrio rotiferianus [3] = assay type: cell-based; settings: 48 h
Method in brief: as §1

Vibrio harveyi [4] = assay type: cell-based; settings: 48 h
Method in brief: as §1

Shewanella sp. [5] = assay type: cell-based; settings: 48 h
Method in brief: as §1

[6] = test system: Escherichia coli (ATCC 25922); assay type: cell-based; settings: ATCC 25922, 48 h
Method in brief: as §1

Vibrio scophthalmi [7] = assay type: cell-based; settings: 48 h
Method in brief: as §1

Pseudoalteromonas sp. = assay type: cell-based; settings: 48 h
Method in brief: as §1

[8] = Test whether the AMPs precipitated in MHB and required acetic acid adjustments; assay type: physicochemical; settings: MIC two or more dilutions higher without acetic acid than with acetic acid = requires acetic acid adjustments; MHB 0‰
Procedure: The protocol was followed to determine the minimum inhibitory concentration (MIC) of the selected peptides. Two MIC assays were performed, firstly to determine whether each peptide precipitated in MHB and thereby required acetic acid adjustments (supplementary materials) and secondly, to determine the antimicrobial activity of each peptide in artificial seawater (25‰). Peptide stock solutions (1.3 mg mL^−1) were made by diluting the peptides in sterile deionised water. MHB was made with deionised water to reach a concentration of approaching 0‰ and artificial sea salts (Sigma-Aldrich® S9883) to reach a salinity of 25‰.
A broth microdilution protocol was followed to test whether the AMPs precipitated in MHB. The isolates T. discolor and Pseudoalteromonas were excluded from this assay because they required marine salts for growth. The peptides HHC10 and HHC36 previously required acetic acid adjustments according to [63] and were not trialled in this assay. To test if peptides required acetic acid, each peptide was diluted 1:2 in acetic acid (0.02% acetic acid w/v, containing 0.4% BSA) solution. […] The 96-well plates were incubated at 25 °C and read at 24 and 48 hours. The MIC was visually determined using a Sensititre™ Vizion™ Digital MIC Viewing System (Thermo Scientific™), and the lowest AMP concentration that had no bacterial growth was recorded as the MIC after 48 hours. […]

Vibrio alginolyticus [9] = assay type: cell-based; settings: 48 h; remark: listed apart in the source
Method in brief: (§2)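 Broth microdilution MIC in MHB (0‰) or MHB with artificial seawater (25‰), with or without acetic acid/BSA diluent, at about 5 × 10^5 CFU mL^-1 and peptide 0.125-65 µg mL^-1. Plates incubated at 25 °C and read visually; MIC is the lowest concentration without growth at 48 h, in duplicate.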

[10] = test system: Vibrio harveyi (ATCC 35084); assay type: cell-based; settings: ATCC 35084, 48 h; remark: listed apart in the source
Method in brief: as §2

Vibrio rotiferianus [11] = assay type: cell-based; settings: 48 h; remark: listed apart in the source
Method in brief: as §2

Vibrio harveyi [12] = assay type: cell-based; settings: 48 h; remark: listed apart in the source
Method in brief: as §2

Shewanella sp. [13] = assay type: cell-based; settings: 48 h; remark: listed apart in the source
Method in brief: as §2

[14] = test system: Escherichia coli (ATCC 25922); assay type: cell-based; settings: ATCC 25922, 48 h; remark: listed apart in the source
Method in brief: as §2

Vibrio scophthalmi [15] = assay type: cell-based; settings: 48 h; remark: listed apart in the source
Method in brief: as §2

[16] = test system: MRSA and P. aeruginosa bacterial infections; settings: MRSA and P. aeruginosa infections in mice and nematodes, respectively; ref [23], [64], [65]; cited from earlier work
Procedure: The MIC assay under high salt concentration identified these peptides as being effective against V. rotiferianus and T. discolor at a high peptide concentration (65 µg mL^−1), however, the two bacterial species were not identified in the control rotifer culture, and the reduction of their presence cannot be quantified. In relation to other AMP research, the majority of AMPs are currently teste ...

CC[C@@H](C)[C@@H](NC(=O)[C@@H](C)NC(=O)[C@@H](CCCNC(=N)N)NC(=O)[C@@H](Cc1c[nH]c2ccccc12)NC(=O)[C@@H](CCC(N)=O)NC(=O)[C@H](N)C(C)C)C(=O)N[C@H](CCCNC(=N)N)C(=O)N[C@@H](C(=O)N[C@H](CCCNC(=N)N)C(=O)N[C@@H](C(=O)N[C@@H](C(=O)N[C@H](CCCNC(=N)N)C(N)=O)[C@H](C)CC)C(C)C)C(C)C [DJK5] (H-[dV][dQ][dW][dR][dA][dI][dR][dV][dR][dV][dI][dR]-NH2; N-terminus and C-terminus assumed)
successfully reduced: reduction of bacterial infections in terrestrial organisms [16]
0.51 µg/mL: MIC V. scophthalmi, salinity 0‰ (Vibrio scophthalmi [7]) | MIC V. scophthalmi, Acetic (Vibrio scophthalmi [15]) | MIC V. scophthalmi, No acetic (Vibrio scophthalmi [15])
8.13 µg/mL: MIC E. coli ATCC 25922, No acetic [14]
4.06 µg/mL: MIC V. alginolyticus, salinity 0‰ (Vibrio alginolyticus [1]) | MIC V. harveyi, salinity 0‰ (Vibrio harveyi [4]) | MIC V. alginolyticus, Acetic (Vibrio alginolyticus [9]) | MIC V. alginolyticus, No acetic (Vibrio alginolyticus [9]) | MIC V. harveyi ATCC 35084, Acetic [10] | MIC V. harveyi, No acetic (Vibrio harveyi [12]) | MIC E. coli ATCC 25922, Acetic [14]
1.02 µg/mL: MIC V. rotiferianus, salinity 0‰ (Vibrio rotiferianus [3]) | MIC V. rotiferianus, Acetic (Vibrio rotiferianus [11]) | MIC V. rotiferianus, No acetic (Vibrio rotiferianus [11]) | MIC Shewanella sp., Acetic (Shewanella sp. [13]) | MIC Shewanella sp., No acetic (Shewanella sp. [13])
2.03 µg/mL: MIC V. harveyi ATCC 35084, salinity 0‰ [2] | MIC Shewanella sp., salinity 0‰ (Shewanella sp. [5]) | MIC E. coli ATCC 25922, salinity 0‰ [6] | MIC V. harveyi ATCC 35084, No acetic [10] | MIC V. harveyi, Acetic (Vibrio harveyi [12])
> 65 µg/mL: MIC V. alginolyticus, salinity 25‰ (Vibrio alginolyticus [1]) | MIC V. harveyi ATCC 35084, salinity 25‰ [2] | MIC T. discolor, salinity 25‰ (Tenacibaculum discolor) | MIC V. rotiferianus, salinity 25‰ (Vibrio rotiferianus [3]) | MIC V. harveyi, salinity 25‰ (Vibrio harveyi [4]) | MIC Shewanella sp., salinity 25‰ (Shewanella sp. [5]) | MIC E. coli ATCC 25922, salinity 25‰ [6] | MIC V. scophthalmi, salinity 25‰ (Vibrio scophthalmi [7]) | MIC Pseudoalteromonas sp., salinity 25‰ (Pseudoalteromonas sp.)
did not: requirement for acetic acid (precipitation in MHB) [8]
